Like-named read-outs stand apart in the source and are kept apart here.
Key:
PfPanK1 [1] = biological target: T1, PfPanK1 (Plasmodium falciparum, UniProt Q8ILP4); assay type: biochemical
T1 sequence (Q8ILP4 1-519): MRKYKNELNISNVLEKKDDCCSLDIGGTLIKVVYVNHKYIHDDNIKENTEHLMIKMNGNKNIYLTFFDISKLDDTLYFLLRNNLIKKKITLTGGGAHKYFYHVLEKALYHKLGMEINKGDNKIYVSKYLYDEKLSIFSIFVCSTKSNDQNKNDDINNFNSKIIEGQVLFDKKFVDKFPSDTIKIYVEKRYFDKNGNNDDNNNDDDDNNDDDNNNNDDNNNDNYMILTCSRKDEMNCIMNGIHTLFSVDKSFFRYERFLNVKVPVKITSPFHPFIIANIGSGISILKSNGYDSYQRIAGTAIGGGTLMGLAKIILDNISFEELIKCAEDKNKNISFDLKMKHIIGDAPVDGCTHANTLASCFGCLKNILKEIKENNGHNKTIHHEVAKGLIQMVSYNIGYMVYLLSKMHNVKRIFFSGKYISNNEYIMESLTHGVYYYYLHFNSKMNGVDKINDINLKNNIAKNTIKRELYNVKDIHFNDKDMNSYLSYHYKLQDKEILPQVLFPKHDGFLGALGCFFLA

PfPanK1 [2] = biological target: T1, PfPanK1; assay: Screening of natural compounds for PfPanK inhibitors and IC50 determination (recombinant enzyme, ADP Hunter Plus); assay type: biochemical; conditions: 2 h, primary screening, 37°C; for PfPanK1 Inhibition (%): compound at 50 µM final concentration (methods: 50 µg/ml)
Protocol: We screened 247 compounds from the Kitasato Natural Products Library ([Mori et al., 2015]; [Nurkanto et al., 2018]) against PfPanK recombinant enzyme. Compounds were dissolved in 50% DMSO at a final concentration of 1 mg/ml.

[3] = pantetheine as substrate, 100 μM ATP, pH 8.4, 37°C
[4] = metal ion 5 mM, substrate pantetheine, relative to MgCl2, pH 8.4, 37°C
[5] = metal ion 5 mM, substrate pantothenate, relative to MgCl2, pH 8.4, 37°C
[6] = substrate pair pantetheine and ATP

In the case of CC(C)(COP(=O)(O)OP(=O)(O)OC[C@H]1O[C@@H](n2cnc3c(N)ncnc32)[C@H](O)[C@@H]1OP(=O)(O)O)[C@@H](O)C(=O)NCCC(=O)NCCS [CoA, Coenzyme A], the “Effect on PfPanK1 activity” value (PfPanK1 [1]; pH 8.4) is reported as “inhibited” and the “Effect on PfPanK1 activity” value (PfPanK1 [1]; [3]) is reported as “inhibited”.
[Cl-].[Cl-].[Zn+2] [ZnCl2] was tested, and the “Relative activity (%) Pantetheine” value (PfPanK1 [1]; [4]) was 29.0 ± 0.6% and the “Relative activity (%) Pantothenate” value (PfPanK1 [1]; [5]) was 35.6 ± 5.6%.
In the case of [Cl][Mn][Cl] [MnCl2], the “Relative activity (%) Pantetheine” value (PfPanK1 [1]; [4]) is reported as 55.3 ± 0.1% and the “Relative activity (%) Pantothenate” value (PfPanK1 [1]; [5]) is reported as 41.7 ± 8.4%.
With NC[C@H]1O[C@H](O[C@H]2[C@H](O[C@@H]3O[C@H](CO)[C@@H](O)[C@H]3O)[C@@H](O)[C@H](N)C[C@@H]2N)[C@H](N)[C@@H](O)[C@@H]1O [Ribostamycin] the inhibition (PfPanK1 [2]) was 46.6%.
For Cc1nnc(SCC2=C(C(=O)O)N3C(=O)[C@@H](NC(=O)Cn4cnnn4)[C@H]3SC2)s1 [Cefazolin], the inhibition (PfPanK1 [2]) was 44.2%.
CN[C@@H]1[C@H](O)[C@H](NC)[C@H]2O[C@@]3(O)C(=O)C[C@@H](C)O[C@H]3O[C@@H]2[C@H]1O [Spectinomycin (Trobicin), Spectinomycin] was tested, and the inhibition (PfPanK1 [2]) was 47.8%.
CC(C)(CO)C(O)C(=O)NCCCO (stereo not drawn) [panthenol] was tested, and the “Increase of enzyme activity” value (PfPanK1 [1]; high concentrations of panthenol (e.g., 0.5 mM), regardless of the substrates) was “up to 40%”, the “Effect on PfPanK1 activity” value (PfPanK1 [1]; [3]) was “did not inhibit PfPanK1 activity” and the “Effect on PfPanK1 activity” value (PfPanK1 [1]; pantothenate as substrate, 100 μM ATP, pH 8.4, 37°C) was “did not inhibit PfPanK1 activity”.
Nc1ncnc2c1ncn2[C@H]1C[C@H](O)[C@@H](COP(=O)(O)OP(=O)(O)OP(=O)(O)O)O1 [dATP] was tested, and the “Relative activity (%) Pantetheine” value (PfPanK1 [1]; pH 8.4) was 8.5 ± 2.7% and the “Relative activity (%) Pantothenate” value (PfPanK1 [1]; pH 8.4) was 9.0 ± 2.2%.
With CC(C)(CO)[C@@H](O)C(=O)NCCC(=O)NCCS [Pantetheine] the V max (PfPanK1 [1]; [6]) was 19.6 ± 1.2 µmol/min/mg, the k cat (PfPanK1 [1]; [6]) was 19.52 ± 0.417 s⁻¹ and the “k cat/K m” value (PfPanK1 [1]; [6]) was 25.6 ± 0.7 min^-1µM^-1. The K m (PfPanK1 [1]; substrate pair pantetheine and ATP, 120 µM ATP or 100 µM pantetheine, 37°C) was 45.7 ± 6.9 µM.
In the case of C/C=C\C=C\[C@@H]1O[C@](O)([C@H](CC)C(=O)NC/C=C/C=C(\C)[C@@H](OC)[C@@H](C)[C@@H]2O[C@H](/C=C/C=C/C=C(\C)C(=O)c3c(O)ccn(C)c3=O)[C@H](O)[C@@H]2O)[C@H](O)[C@H](O)C1(C)C [Aurodox], the “PfPanK1 Inhibition (%)” value (PfPanK1 [2]) is reported as 52.2%.
In the case of CN[C@@H]1[C@H](O)[C@H](NC)[C@H]2O[C@@]3(O)C(=O)C[C@@H](C)O[C@H]3O[C@@H]2[C@H]1O [Spectinomycin (Actinospectacin), Spectinomycin], the “PfPanK1 Inhibition (%)” value (PfPanK1 [2]) is reported as 55.0%.
With Thaimycin the “PfPanK1 Inhibition (%)” value (PfPanK1 [2]) was 53.9%.
CO[C@@H]1[C@@H](O[C@@H]2O[C@H](C)[C@@H](O[C@H]3C[C@@](C)(O)[C@@H](OC(=O)CC(C)C)[C@H](C)O3)[C@H](N(C)C)[C@H]2O)[C@@H](CC=O)C[C@@H](C)[C@@H](O)/C=C/C=C/C[C@@H](C)OC(=O)C[C@H]1OC(C)=O [Leucomycin A3] gave an inhibition (PfPanK1 [2]) of 40.1%.
For [Cl-].[Na+] [NaCl], the “Relative activity (%) Pantetheine” value (PfPanK1 [1]; pH 8.4) was 33.1 ± 6.2% and the “Relative activity (%) Pantothenate” value (PfPanK1 [1]; pH 8.4) was 41.4 ± 5.3%.
With [Cl-].[Cl-].[Co+2] [CoCl2] the “Relative activity (%) Pantetheine” value (PfPanK1 [1]; pH 8.4, 37°C) was 22.3 ± 1.0% and the “Relative activity (%) Pantothenate” value (PfPanK1 [1]; pH 8.4, 37°C) was 25.8 ± 1.9%.
In the case of [Cl-].[K+] [KCl], the “Relative activity (%) Pantetheine” value (PfPanK1 [1]; [4]) is reported as 33.6 ± 3.4% and the “Relative activity (%) Pantothenate” value (PfPanK1 [1]; [5]) is reported as 29.7 ± 2.3%.
NC[C@@H]1O[C@H](O[C@H]2[C@@H](O)[C@H](O[C@@H]3[C@@H](O)[C@H](N)C[C@H](N)[C@H]3O[C@H]3O[C@H](CO)[C@@H](O)C[C@H]3N)O[C@@H]2CO)[C@H](N)[C@@H](O)[C@@H]1O[C@H]1O[C@H](CO)[C@@H](O)[C@H](O)[C@@H]1O [Lividomycin A] was tested, and the inhibition (PfPanK1 [2]) was 44%.
In the case of CC(/C=C/C(O)=C1/C(=O)CNC1=O)=C\[C@@H](C)[C@H]1O[C@@]2(C)O[C@H](C(=O)[C@H]3O[C@]32C)[C@@H]1C [Tirandamycin A], the “PfPanK1 Inhibition (%)” value (PfPanK1 [2]) is reported as 49.7%.
